9 compounds from BindingDB's records for doi:10.1021/acsmedchemlett.0c00008 (Taisho Pharmaceutical, 2020) can be followed below.

pEC50: −log10 of the molar value. Where only a bound is given, the exact number is not on record here.

Assay [1] in a line: Inhibition of Human respiratory syncytial virus A2 Fusion protein expressed in Hep2 cells assessed as reduction in virus-induced cytopathic effect after 4 days by XTT assay.
Assay [2] is described as follows: Inhibition of Human respiratory syncytial virus Fusion protein D486N mutant expressed in Hep2 cells assessed as reduction in virus-induced cytopathic effect after 4 days by XTT assay. (Protection from cytopathic effect is a common read-out in antiviral testing.)

Turning to `CC[C@H]1c2cc3nc(N4CC[C@H](N)C4)cc(n3n2)N(C)CCCOc2ccc(C)cc2C(=O)N1C`, the pEC50 (usually −log10 of the EC50, conventionally taken in molar units) was 7.77 in assay [1] and below 6.00 in assay [2].

`CC[C@H]1c2cc3nc(N4CC[C@H](N)C4)c(C)c(n3n2)NCCCCOc2ccc(C)cc2C(=O)N1C`: the figures for the pEC50 in assay [1] and in assay [2] were 8.85 and below 6.00, respectively.

In the case of `CC[C@@H](c1cc2nc(N3CC[C@H](N)C3)c(C)cn2n1)N(C)C(=O)c1cc(C)ccc1OC`, the values for the pEC50 in assay [1] and in assay [2] were 8.42 and below 6.00, respectively.

With `CC[C@H]1c2cc3nc(N4CC[C@H](N)C4)cc(n3n2)N(C)CCCCCOc2ccc(C)cc2C(=O)N1C`, the values for the pEC50 in assay [1] and in assay [2] were 8.21 and below 6.00, respectively.

As for `CC[C@H]1c2cc3nc(N4CC[C@H](N)C4)c(C)c(n3n2)N(C)CCCCOc2ccc(C)cc2C(=O)N1C`, the pEC50 in assay [1] is 8.09; in assay [2] it was below 6.00.

For the compound `Cc1ccc2c(c1)C(=O)N1CCCC[C@H]1c1cc3nc(N4CC[C@H](N)C4)cc(n3n1)N(C)CCCCO2`, the pEC50 was 8.70 in assay [1] and 8.09 in assay [2].

On to `CC[C@H]1c2cc3nc(N4CC[C@H](N)C4)cc(n3n2)NCCCCOc2ccc(C)cc2C(=O)N1C`, for which the pEC50 in assay [1] is 7.21; in assay [2], below 6.00.

For the compound `CC[C@H]1c2cc3nc(N4CC[C@H](N)C4)cc(n3n2)N(C)CCCCCCOc2ccc(C)cc2C(=O)N1C`, the results for the pEC50 in assay [1] and in assay [2] were 7.27 and below 6.00, respectively.

Turning to `CC[C@H]1c2cc3nc(N4CC[C@H](N)C4)cc(n3n2)N(C)CCCCOc2ccc(C)cc2C(=O)N1C`, the values for the pEC50 in assay [1] and in assay [2] were 9.18 and 6.36, respectively.
